Measurements: ChEMBL document CHEMBL4004838, “Design and synthesis of novel phenyl -1, 4-beta-carboline-hybrid molecules as potential anticancer agents” (Eur J Med Chem, 2017)
Active and inactive are the calls of the source. The calls are words filed in the database; no cut-off is given here.

What was measured:
UO-31 = experiment: Growth inhibition of human UO31 cells incubated for 48 hrs by sulforhodamine B assay; format: functional; conditions: UO-31, 48 h
MDA-MB-231 = experiment: Growth inhibition of human MDA-MB-231 cells assessed as cell growth at 0.1 uM incubated for 48 hrs by sulforhodamine B assay relative to control; format: functional; conditions: MDA-MB-231, 48 h, read-out: Activity
OVCAR-5 = experiment: Growth inhibition of human OVCAR5 cells assessed as cell growth at 100 uM incubated for 48 hrs by sulforhodamine B assay relative to control; format: functional; conditions: OVCAR-5, 48 h, read-out: Activity
MOLT-4 = experiment: Growth inhibition of human MOLT4 cells incubated for 48 hrs by sulforhodamine B assay; format: functional; conditions: MOLT-4, 48 h
NCI/ADR-RES = experiment: Growth inhibition of human NCI-ADR-RES cells incubated for 48 hrs by sulforhodamine B assay; format: functional
Bos taurus = species on record: Bos taurus; experiment: Binding affinity to calf thymus DNA assessed as induction of hyperchromic shift at 20 uM sonicated for 35 to 40 mins by UV-vis spectrophotometric analysis
A498 = experiment: Growth inhibition of human A498 cells incubated for 48 hrs by sulforhodamine B assay; format: functional; conditions: A498, 48 h
SK-MEL-5 = experiment: Growth inhibition of human SK-MEL-5 cells incubated for 48 hrs by sulforhodamine B assay; format: functional; conditions: SK-MEL-5, 48 h
RXF 393 = experiment: Growth inhibition of human RXF393 cells assessed as cell growth at 0.1 uM incubated for 48 hrs by sulforhodamine B assay relative to control; format: functional; conditions: RXF 393, 48 h, read-out: Activity
NCI-H226 = experiment: Growth inhibition of human NCI-H226 cells assessed as cell growth at 0.1 uM incubated for 48 hrs by sulforhodamine B assay relative to control; format: functional; conditions: NCI-H226, 48 h, read-out: Activity
LOX IMVI [1] = experiment: Growth inhibition of human LOXIMVI cells assessed as cell growth at 100 uM incubated for 48 hrs by sulforhodamine B assay relative to control; format: functional; conditions: read-out: Activity
COLO 205 = experiment: Growth inhibition of human COLO205 cells assessed as cell growth at 0.1 uM incubated for 48 hrs by sulforhodamine B assay relative to control; format: functional; conditions: COLO 205, 48 h, read-out: Activity
ACHN = experiment: Growth inhibition of human ACHN cells incubated for 48 hrs by sulforhodamine B assay; format: functional
MDA-MB-435 [2] = experiment: Growth inhibition of human MDA-MB-435 cells assessed as cell growth at 0.1 uM incubated for 48 hrs by sulforhodamine B assay relative to control; format: functional; conditions: MDA-MB-435, 48 h, read-out: Activity
SK-OV-3 = experiment: Growth inhibition of human SKOV3 cells assessed as cell growth at 100 uM incubated for 48 hrs by sulforhodamine B assay relative to control; format: functional; conditions: SK-OV-3, 48 h, read-out: Activity
SF-295 = experiment: Growth inhibition of human SF295 cells incubated for 48 hrs by sulforhodamine B assay; format: functional; conditions: SF-295, 48 h
LOX IMVI [3] = experiment: Growth inhibition of human LOXIMVI cells incubated for 48 hrs by sulforhodamine B assay; format: functional
HCT-15 = experiment: Growth inhibition of human HCT15 cells assessed as cell growth at 1 uM incubated for 48 hrs by sulforhodamine B assay relative to control; format: functional; conditions: HCT-15, 48 h, read-out: Activity
M14 = experiment: Growth inhibition of human M14 cells assessed as cell growth at 1 uM incubated for 48 hrs by sulforhodamine B assay relative to control; format: functional; conditions: M14, 48 h, read-out: Activity
SR = experiment: Growth inhibition of human SR cells assessed as cell growth at 100 uM incubated for 48 hrs by sulforhodamine B assay relative to control; format: functional; conditions: read-out: Activity
LOX IMVI [4] = experiment: Growth inhibition of human LOXIMVI cells assessed as cell growth at 1 uM incubated for 48 hrs by sulforhodamine B assay relative to control; format: functional; conditions: read-out: Activity
OVCAR-3 = experiment: Growth inhibition of human OVCAR3 cells assessed as cell growth at 0.01 uM incubated for 48 hrs by sulforhodamine B assay relative to control; format: functional; conditions: OVCAR-3, 48 h, read-out: Activity
RPMI-8226 = experiment: Growth inhibition of human RPMI8226 cells incubated for 48 hrs by sulforhodamine B assay; format: functional; conditions: RPMI-8226, 48 h
786-0 = experiment: Growth inhibition of human 786-0 cells incubated for 48 hrs by sulforhodamine B assay; format: functional; conditions: 786-0, 48 h
HCC 2998 = experiment: Growth inhibition of human HCC2998 cells assessed as cell growth at 0.01 uM incubated for 48 hrs by sulforhodamine B assay relative to control; format: functional; conditions: HCC 2998, 48 h, read-out: Activity
SF-268 = experiment: Growth inhibition of human SF268 cells assessed as cell growth at 1 uM incubated for 48 hrs by sulforhodamine B assay relative to control; format: functional; conditions: SF-268, 48 h, read-out: Activity
MDA-MB-435 [5] = experiment: Growth inhibition of human MDA-MB-435 cells assessed as cell growth at 0.01 uM incubated for 48 hrs by sulforhodamine B assay relative to control; format: functional; conditions: MDA-MB-435, 48 h, read-out: Activity
TK-10 = experiment: Growth inhibition of human TK10 cells assessed as cell growth at 0.1 uM incubated for 48 hrs by sulforhodamine B assay relative to control; format: functional; conditions: TK-10, 48 h, read-out: Activity
[6] = read-out: LC50 (the source's name)
[7] = read-out: pLC50 (the source's name) (converted)

**Q.** How did the GI50 (UO-31; read-out: GI50) turn out when c1ccc2c3c([nH]c2c1)C(c1ccc(C2NCCc4c2[nH]c2ccccc42)cc1)NCC3 (racemic) was run?
**A.** 1040 nM

**Q.** What about the CC50 (UO-31; [6]) of the same compound?
**A.** 4.92 µM

**Q.** And the TGI (UO-31; read-out: TGI)?
**A.** 2260 nM

**Q.** What about the GI50 (UO-31; read-out: pGI50 (converted)) of the same compound?
**A.** 1050 nM

**Q.** And the CC50 (UO-31; [7])?
**A.** 4.9 µM

**Q.** What about the TGI (UO-31; read-out: pTGI (converted)) of the same compound?
**A.** 2240 nM

**Q.** And the growth at 0.1 µM (MDA-MB-231)?
**A.** 97%

**Q.** And the growth at 100 µM (OVCAR-5)?
**A.** 90%

**Q.** What about the CC50 (MOLT-4; [6]) of the same compound?
**A.** 8.03 µM

**Q.** What about the GI50 (MOLT-4; read-out: pGI50 (converted)) of the same compound?
**A.** 380 nM

**Q.** And the CC50 (MOLT-4; [7])?
**A.** 7.94 µM

**Q.** What about the TGI (MOLT-4; read-out: pTGI (converted)) of the same compound?
**A.** 1550 nM

**Q.** What about the GI50 (NCI/ADR-RES; read-out: GI50) of the same compound?
**A.** 2100 nM

**Q.** And the CC50 (NCI/ADR-RES; [6])?
**A.** > 1 µM

**Q.** And the TGI (NCI/ADR-RES; read-out: TGI)?
**A.** 7.81 µM

**Q.** And the GI50 (NCI/ADR-RES; read-out: pGI50 (converted))?
**A.** 2090 nM

**Q.** What about the CC50 (NCI/ADR-RES; read-out: pLC50 (converted)) of the same compound?
**A.** > 100 µM

**Q.** And the TGI (NCI/ADR-RES; read-out: pTGI (converted))?
**A.** 7.76 µM

**Q.** And the Activity (Bos taurus)?
**A.** Active

**Q.** And the GI50 (A498; read-out: GI50)?
**A.** 1640 nM

**Q.** What about the CC50 (A498; [6]) of the same compound?
**A.** 36.9 µM

**Q.** What about the TGI (A498; read-out: TGI) of the same compound?
**A.** 8.87 µM

**Q.** And the GI50 (A498; read-out: pGI50 (converted))?
**A.** 1660 nM

**Q.** And the CC50 (A498; [7])?
**A.** 37.2 µM

**Q.** What about the TGI (A498; read-out: pTGI (converted)) of the same compound?
**A.** 8.91 µM

**Q.** And the GI50 (SK-MEL-5; read-out: GI50)?
**A.** 1700 nM

**Q.** What about the CC50 (SK-MEL-5; [6]) of the same compound?
**A.** 5.75 µM

**Q.** What about the TGI (SK-MEL-5; read-out: TGI) of the same compound?
**A.** 3.13 µM

**Q.** What about the GI50 (SK-MEL-5; read-out: pGI50 (converted)) of the same compound?
**A.** 1700 nM

**Q.** And the CC50 (SK-MEL-5; [7])?
**A.** 5.75 µM

**Q.** And the TGI (SK-MEL-5; read-out: pTGI (converted))?
**A.** 3.16 µM

**Q.** And the growth at 0.1 µM (RXF 393)?
**A.** 101%

**Q.** And the growth at 0.1 µM (NCI-H226)?
**A.** 95%

**Q.** And the growth at 100 µM (LOX IMVI [1])?
**A.** 84%

**Q.** And the growth at 0.1 µM (COLO 205)?
**A.** 94%

**Q.** And the CC50 (ACHN; [6])?
**A.** 4.58 µM

**Q.** And the GI50 (ACHN; read-out: pGI50 (converted))?
**A.** 708 nM

**Q.** What about the CC50 (ACHN; [7]) of the same compound?
**A.** 4.57 µM

**Q.** And the TGI (ACHN; read-out: pTGI (converted))?
**A.** 2000 nM

**Q.** What about the growth at 0.1 µM (MDA-MB-435 [2]) of the same compound?
**A.** 99%

**Q.** And the growth at 100 µM (SK-OV-3)?
**A.** -96%

**Q.** What about the GI50 (SF-295; read-out: GI50) of the same compound?
**A.** 1620 nM

**Q.** And the TGI (SF-295; read-out: TGI)?
**A.** 3.33 µM

**Q.** And the GI50 (SF-295; read-out: pGI50 (converted))?
**A.** 1620 nM

**Q.** What about the TGI (SF-295; read-out: pTGI (converted)) of the same compound?
**A.** 3.31 µM

**Q.** And the GI50 (LOX IMVI [3]; read-out: GI50)?
**A.** 1960 nM

**Q.** What about the CC50 (LOX IMVI [3]; [6]) of the same compound?
**A.** 1100 nM

**Q.** What about the TGI (LOX IMVI [3]; read-out: TGI) of the same compound?
**A.** 4.5 µM

**Q.** What about the GI50 (LOX IMVI [3]; read-out: pGI50 (converted)) of the same compound?
**A.** 195 nM

**Q.** What about the CC50 (LOX IMVI [3]; [7]) of the same compound?
**A.** 1100 nM

**Q.** And the TGI (LOX IMVI [3]; read-out: pTGI (converted))?
**A.** 4.47 µM

**Q.** And the growth at 1 µM (HCT-15)?
**A.** 24%

**Q.** What about the growth at 1 µM (M14) of the same compound?
**A.** 21%

**Q.** What about the growth at 100 µM (SR) of the same compound?
**A.** -68%

**Q.** What about the growth at 1 µM (LOX IMVI [4]) of the same compound?
**A.** 48%

**Q.** What about the growth at 0.01 µM (OVCAR-3) of the same compound?
**A.** 100%

**Q.** And the CC50 (RPMI-8226; [6])?
**A.** 1.23 µM

**Q.** What about the GI50 (RPMI-8226; read-out: pGI50 (converted)) of the same compound?
**A.** 339 nM

**Q.** And the CC50 (RPMI-8226; [7])?
**A.** 12.3 µM

**Q.** What about the TGI (RPMI-8226; read-out: pTGI (converted)) of the same compound?
**A.** 1100 nM

**Q.** And the GI50 (786-0; read-out: GI50)?
**A.** 1740 nM

**Q.** What about the CC50 (786-0; [6]) of the same compound?
**A.** 6.54 µM

**Q.** And the TGI (786-0; read-out: TGI)?
**A.** 3.38 µM

**Q.** And the GI50 (786-0; read-out: pGI50 (converted))?
**A.** 1740 nM

**Q.** What about the CC50 (786-0; [7]) of the same compound?
**A.** 6.61 µM

**Q.** And the TGI (786-0; read-out: pTGI (converted))?
**A.** 3.39 µM

**Q.** What about the growth at 0.01 µM (HCC 2998) of the same compound?
**A.** 91%

**Q.** What about the growth at 1 µM (SF-268) of the same compound?
**A.** 57%

**Q.** What about the growth at 0.01 µM (MDA-MB-435 [5]) of the same compound?
**A.** 95%

**Q.** And the growth at 0.1 µM (TK-10)?
**A.** 96%
